The test system of experiment [1] is ALOMY. Nature of the experiment: greenhouse pre-emergence herbicidal test. In kind it is in vivo, Alopercurus myosuroides. The conditions noted are these: pre-emergence method, application rate 500 g/ha, scale from 0 to 100. An excerpt:
The seeds of the test plants were sown separately for each species. For the pre-emergence treatment, the active ingredients, which had been suspended or emulsified in water, were applied directly after sowing by means of finely distributing nozzles. The containers were irrigated gently to promote germination and growth and subsequently covered with transparent plastic hoods until the plants had rooted. This cover caused uniform germination of the test plants, unless this had been impaired by the active ingredients. Depending on the species, the plants were kept at 10-25° C. or 20-35° C., respectively. The test period extended over 2 to 4 weeks. During this time, the plants were tended, and their response to the individual treatments was evaluated. Evaluation was carried out using a scale from 0 to 100. 100 means no emergence of the plants, or complete destruction of at least the aerial moieties, and 0 means no damage, or normal course of growth. […] The plants used in the greenhouse experiments were of the following species: [table]

Experiment [2] relates to APESV. Nature of the experiment: greenhouse pre-emergence herbicidal test. In kind it is in vivo, Apera spica-venti. The conditions noted are these: pre-emergence method, scale from 0 to 100. The gist of the method: (§1)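 Rated on a 0 (normal growth) to 100 (no emergence/total aerial kill) scale over a 2-4 week test period. Aqueous suspensions or emulsions applied by fine nozzles right after sowing, then plants held under hoods at 10-25 °C or 20-35 °C depending on species.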

The subject of experiment [3] is ECHCG. Nature of the experiment: greenhouse pre-emergence herbicidal test. The conditions noted are these: pre-emergence method, scale from 0 to 100. In kind it is in vivo, Echinocloa crus-galli. The gist of the method:
as §1

The test system of experiment [4] is ALOMY. Nature of the experiment: greenhouse post-emergence herbicidal test. The conditions noted are these: post-emergence method, scale from 0 to 100. In kind it is in vivo, Alopercurus myosuroides. The gist of the method: (§2)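 Plants grown to 3 to 15 cm, then sprayed with active ingredient suspended or emulsified in water; kept at 10-25° C. or 20-35° C. by species. Damage scored after 2 to 4 weeks on a 0 to 100 scale, 100 meaning no emergence or complete aerial destruction, 0 normal growth.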

Experiment [5] has as its system ECHCG. Nature of the experiment: greenhouse post-emergence herbicidal test. In kind it is in vivo, Echinocloa crus-galli. The conditions noted are these: post-emergence method, scale from 0 to 100. In short, it runs like this:
as §2

The test system of experiment [6] is ABUTH. Kind of experiment: greenhouse post-emergence herbicidal test. In kind it is in vivo, Abutilon theophrasti. The conditions noted are these: post-emergence method, scale from 0 to 100. An excerpt:
(§3) The seeds of the test plants were sown separately for each species. For the post-emergence treatment, the test plants were first grown to a height of 3 to 15 cm, depending on the plant habit, and only then treated with the active ingredients which had been suspended or emulsified in water. For this purpose, the test plants were either sown directly and grown in the same containers, or they were first grown separately as seedlings and transplanted into the test containers a few days prior to treatment. Depending on the species, the plants were kept at 10-25° C. or 20-35° C., respectively. The test period extended over 2 to 4 weeks. During this time, the plants were tended, and their response to the individual treatments was evaluated. Evaluation was carried out using a scale from 0 to 100. 100 means no emergence of the plants, or complete destruction of at least the aerial moieties, and 0 means no damage, or normal course of growth. […] The plants used in the greenhouse experiments were of the following species: [table]

The test system of experiment [7] is AMARE. Kind of experiment: greenhouse post-emergence herbicidal test. In kind it is in vivo, Amaranthus retroflexus. The conditions noted are these: post-emergence method, scale from 0 to 100. In short, it runs like this:
as §2

The test system of experiment [8] is POLCO. Kind of experiment: greenhouse post-emergence herbicidal test. The experiment is classed as in vivo, Polygonum convolvulus. The conditions noted are these: post-emergence method, application rate 1000 g/ha, scale from 0 to 100.
Excerpt: as §3

13 molecules from patent publication US10420341B2, “Herbicidal phenylpyrimidines” (BASF SE, priority 2015, dated 2019) can be followed below.

As for `Cc1cccc(C)c1-c1cnc(C2CC2)nc1C(=O)O` [example 162], the “herbicidal activity against ALOMY” value in experiment [1] and in experiment [4] (application rate 500 g/ha) was “very good (a very good herbicidal activity is given at values of at least 85)” each time. Further, the “herbicidal activity against APESV” value in experiment [2] (application rate 500 g/ha) is on record as “very good (a very good herbicidal activity is given at values of at least 85)”. In addition, the “herbicidal activity against ECHCG” value in experiment [3] (application rate 500 g/ha) and in experiment [5] (application rate 500 g/ha) was “very good (a very good herbicidal activity is given at values of at least 85)” in each case.

Regarding `COC(=O)c1nc(C2CC2)ncc1-c1cc(Cl)ccc1C` [example 227], the “herbicidal activity against ALOMY” value in experiment [1] and in experiment [4] (application rate 500 g/ha) was “very good (a very good herbicidal activity is given at values of at least 85)” throughout. The “herbicidal activity against APESV” value in experiment [2] (application rate 500 g/ha) was “very good (a very good herbicidal activity is given at values of at least 85)”. Besides, the “herbicidal activity against ECHCG” value in experiment [3] (application rate 500 g/ha) and in experiment [5] (application rate 500 g/ha) was “very good (a very good herbicidal activity is given at values of at least 85)” in each case.

Consider `COC(=O)c1nc(C2CC2)ncc1-c1cc(C)ccc1Cl` [example 205], for which the “herbicidal activity against ALOMY” value in experiment [1] and in experiment [4] (application rate 500 g/ha) was “good (A good herbicidal activity is given at values of at least 70)” throughout. The “herbicidal activity against APESV” value in experiment [2] (application rate 500 g/ha) is given as “very good (a very good herbicidal activity is given at values of at least 85)”. For the same molecule, the “herbicidal activity against ECHCG” value in experiment [3] (application rate 500 g/ha) and in experiment [5] (application rate 500 g/ha) was “very good (a very good herbicidal activity is given at values of at least 85)” each time.

In the case of `O=C(O)c1nc(C2CC2)ncc1-c1ccccc1F` [example 132], the “herbicidal activity against ALOMY” value in experiment [1] and in experiment [4] (application rate 500 g/ha) was “very good (a very good herbicidal activity is given at values of at least 85)” in each case. Moreover, the “herbicidal activity against APESV” value in experiment [2] (application rate 500 g/ha) is on record as “very good (a very good herbicidal activity is given at values of at least 85)”. Moreover, the “herbicidal activity against ECHCG” value in experiment [3] (application rate 500 g/ha) and in experiment [5] (application rate 500 g/ha) was “very good (a very good herbicidal activity is given at values of at least 85)” each time.

Turning to `COC(=O)c1nc(C2CC2)ncc1-c1ccccc1Br` [example 213], the “herbicidal activity against ALOMY” value in experiment [1] is listed as “very good (a very good herbicidal activity is given at values of at least 85)”; in experiment [4] (application rate 500 g/ha), “good (A good herbicidal activity is given at values of at least 70)”. In addition, in experiment [2] (application rate 500 g/ha), the “herbicidal activity against APESV” value is on record as “very good (a very good herbicidal activity is given at values of at least 85)”. The “herbicidal activity against ECHCG” value was “very good (a very good herbicidal activity is given at values of at least 85)” in experiment [3] (application rate 500 g/ha) and “good (A good herbicidal activity is given at values of at least 70)” in experiment [5] (application rate 500 g/ha).

Consider `CC(C)c1ncc(-c2ccccc2Cl)c(C(=O)O)n1` [example 32], for which the “herbicidal activity against APESV” value in experiment [2] (application rate 1000 g/ha) is “very good (a very good herbicidal activity is given at values of at least 85)”. Further, the “herbicidal activity against ECHCG” value in experiment [3] (application rate 1000 g/ha) was “very good (a very good herbicidal activity is given at values of at least 85)”. Also, the “herbicidal activity against ABUTH” value in experiment [6] (application rate 1000 g/ha) is given as “very good (a very good herbicidal activity is given at values of at least 85)”. Besides, the “herbicidal activity against AMARE” value in experiment [7] (application rate 1000 g/ha) is “good (A good herbicidal activity is given at values of at least 70)”.

As to `COC(=O)c1nc(C2CC2)ncc1-c1cc(C)c(F)cc1C` [example 230], the “herbicidal activity against ALOMY” value in experiment [1] and in experiment [4] (application rate 500 g/ha) was “good (A good herbicidal activity is given at values of at least 70)” throughout. The “herbicidal activity against APESV” value in experiment [2] (application rate 500 g/ha) is “very good (a very good herbicidal activity is given at values of at least 85)”. Further, the “herbicidal activity against ECHCG” value in experiment [3] (application rate 500 g/ha) and in experiment [5] (application rate 500 g/ha) was “very good (a very good herbicidal activity is given at values of at least 85)” throughout.

Consider `CSc1ncc(-c2cccc(Cl)c2Cl)c(C(=O)O)n1` [example 90], for which the “herbicidal activity against ABUTH” value in experiment [6] (application rate 2000 g/ha) is “good (A good herbicidal activity is given at values of at least 70)”. In addition, the “herbicidal activity against AMARE” value in experiment [7] (application rate 2000 g/ha) is listed as “very good (a very good herbicidal activity is given at values of at least 85)”. Further, the “herbicidal activity against ECHCG” value in experiment [5] (application rate 2000 g/ha) is reported as “very good (a very good herbicidal activity is given at values of at least 85)”.

Turning to `COC(=O)c1nc(C2CC2)ncc1-c1ccc(F)cc1Cl` [example 207], the “herbicidal activity against ALOMY” value in experiment [1] is recorded as “very good (a very good herbicidal activity is given at values of at least 85)”; in experiment [4] (application rate 500 g/ha) it was “good (A good herbicidal activity is given at values of at least 70)”. In addition, the “herbicidal activity against APESV” value in experiment [2] (application rate 500 g/ha) was “very good (a very good herbicidal activity is given at values of at least 85)”. In experiment [3] (application rate 500 g/ha), the “herbicidal activity against ECHCG” value is “very good (a very good herbicidal activity is given at values of at least 85)”.

Consider `O=C(O)c1nc(C2CC2)ncc1-c1ccc(F)cc1Cl` [example 146], for which the “herbicidal activity against ALOMY” value in experiment [1] and in experiment [4] (application rate 500 g/ha) was “very good (a very good herbicidal activity is given at values of at least 85)” each time. Moreover, in experiment [2] (application rate 500 g/ha), the “herbicidal activity against APESV” value is reported as “very good (a very good herbicidal activity is given at values of at least 85)”. The “herbicidal activity against ECHCG” value in experiment [3] (application rate 500 g/ha) is on record as “very good (a very good herbicidal activity is given at values of at least 85)”.

With `O=C(O)c1nc(C2CC2)ncc1-c1cc(F)ccc1Cl` [example 142], the “herbicidal activity against ALOMY” value in experiment [1] and in experiment [4] (application rate 500 g/ha) was “very good (a very good herbicidal activity is given at values of at least 85)” each time. Also, in experiment [2] (application rate 500 g/ha), the “herbicidal activity against APESV” value was “very good (a very good herbicidal activity is given at values of at least 85)”. For the same molecule, the “herbicidal activity against ECHCG” value in experiment [3] (application rate 500 g/ha) and in experiment [5] (application rate 500 g/ha) was “very good (a very good herbicidal activity is given at values of at least 85)” throughout.

Regarding `COc1ncc(-c2cc(C)ccc2C)c(C(=O)O)n1` [example 54], the “herbicidal activity against APESV” value in experiment [2] (application rate 1000 g/ha) is on record as “very good (a very good herbicidal activity is given at values of at least 85)”. Also, the “herbicidal activity against ECHCG” value in experiment [3] (application rate 1000 g/ha) is given as “very good (a very good herbicidal activity is given at values of at least 85)”. Further, the “herbicidal activity against ABUTH” value in experiment [6] (application rate 1000 g/ha) is “good (A good herbicidal activity is given at values of at least 70)”. The “herbicidal activity against ALOMY” value in experiment [4] (application rate 1000 g/ha) is recorded as “very good (a very good herbicidal activity is given at values of at least 85)”. Moreover, the “herbicidal activity against AMARE” value in experiment [7] (application rate 1000 g/ha) is “very good (a very good herbicidal activity is given at values of at least 85)”.

Consider `CSc1ncc(-c2ccc(F)cc2C)c(C(=O)O)n1` [example 94], for which, in experiment [6] (application rate 1000 g/ha), the “herbicidal activity against ABUTH” value is “good (A good herbicidal activity is given at values of at least 70)”. For the same molecule, in experiment [5] (application rate 1000 g/ha), the “herbicidal activity against ECHCG” value is “very good (a very good herbicidal activity is given at values of at least 85)”. Besides, the “herbicidal activity against POLCO” value in experiment [8] is on record as “very good (a very good herbicidal activity is given at values of at least 85)”.
